In article PMC12520456, “Regulating Enzyme Activity via Microaggregates Mediated by Phase Separation” (Advanced Science, 2025):
Non-standard residues stand in square brackets, D forms with d. Residues, ends and D or L forms follow the SMILES beside them.

How the values were obtained:
[1] = In vivo safety after intraperitoneal injection; design: species or system rat
Text: For in vivo safety, rats receiving an intraperitoneal injection of DPMD were monitored for systemic toxicity and immune response. […] The heart and spleen likewise appeared normal, with no myocardial inflammation or splenic white pulp enlargement (Figure 5G,H). […] We acknowledge that longer‐term studies will be needed, but these initial results support the biosafety of DPMD as a therapeutic agent.
Figure 5 The favorable biosafety and biocompatibility of DPMD. A) The schematic diagram of therapeutic safety benefited from the DPMD. B&C) The blood corpuscle counting and immunotoxicity‐related blood biochemical indexes of rats treated with the DPMD or PBS using intraperitoneal administration. D) Hepatotoxicity measured by pathological section of liver, ALT (glutamic‐pyruvic transaminase), AST (glutamic‐oxalacetic transaminase), total bilirubin (TBIL) and inflammatory cytokines (IL‐6, TNF‐α, MCP‐1and NF‐κB) of liver. E) Nephrotoxicity test, including pathological section of kidney, CR (creatinine), BUN (Blood Urea Nitrogen), albumin (ALB) and inflammatory cytokines (IL‐6, TNF‐α, MCP‐1and NF‐κB) of kidney. […] G) Cardiotoxicity reflected by pathological section and inflammatory cytokines (IL‐6, TNF‐α, MCP‐1and NF‐κB) infiltrating in heart. H) The H&E staining of spleen sections, and IL‐6, TNF‐α, MCP‐1and NF‐κB cytokines were involved in safety detection of DPMD or PBS in spleen. The data from each group were presented as the mean ± SD. Scale bar: 100 µm. Statistical analysis in B‐G was performed using unpaired t‐test.

[2] = system: trypsin pre-incubated with aprotinin; test: Fluorescence anisotropy binding, aprotinin-blocked trypsin; conditions: inhibitor and protein both at 20 μM; Figure S3B
Text: Figure S3. The fluorescent anisotropy evaluation of binding affinity between DPMD peptide with Proteinase K (A), and inhibitor-saturated and blocked trypsin (B) and chymotrypsin (C). Trypsin/Chymotrypsin was saturated and blocked by aprotinin (Yeasen Biotechnology, trypsin/chymotrypsin inhibitor). (D-H) The fluorescent anisotropy evaluation of binding affinity between DPMD peptide with elastase (D), lipase (E), amylase(F), carboxypeptidase (G), albumin (H) and immunoglobulins (I).
Figure S4. The DLS analysis of trypsin, chymotrypsin and DPMD with/without trypsin or chymotrypsin. […]
data acquisition. A series of enzyme solutions with varying concentrations (maximum concentrations of trypsin and chymotrypsin were 20 μM each) were prepared in Tris-HCl buffer (10 mM Tris, 150 mM NaCl, 1 mM EDTA, pH 7.0). These enzyme solutions were added to the 96-well plate and incubated with 100 nM DPMD at room temperature for 30 minutes, with triplicates.
Fluorescence polarization was measured with an excitation wavelength of 470 nm and an emission […]
Plot the fluorescence intensity versus concentration data as scatter plots using Origin software.
For data analysis, fit the concentration-fluorescence polarization data with the logistic function in Origin 2021 software to obtain the fitting curve and determine the half-maximal effective concentration (EC50). […]

[3] = system: trypsin and chymotrypsin in ascitic fluid; test: Ex vivo ascitic fluid from lethal POPF model: aggregates, FRAP, enzyme activity; type: biochemical, rat
Text: This ex vivo evidence confirms that DPMD mitigates POPF via an LSPS‐based mechanism: by assembling leaking pancreatic enzymes into non‐fusing microaggregates, DPMD effectively isolates and inactivates the enzymes, thereby preventing proteolytic damage to surrounding tissues.
Figure S13. (A) The evaluation of fluorescence polarization of DPMD with different volumes ascites. ( B) Representative time -lapse FRAP images howling the pre -bleach and recovery signals of DPMD -treated asciteschymotrypsin ex vitro. Circles indicate the bleached area. Scale bars, 10 μm and 1 μm (zoomed -in image). (C) Time-lapse images of DPMD-ascites mixture aggregates, illustrating the non-fusion of two aggregates. (D) The inhibition evaluation of enzymes in ascites bioactivity for trypsin and chymotrypsin by DPMD.
(1 picture or pasted object on this page, not shown here)

NIH-3T3 cells = type: cell-based; conditions: 48 h
Experimental: (§1) and the product's absorbance at […] was dynamically and real-time monitored using a microplate […]
(§2) During the chymotrypsin activity assay, DPMD was incorporated into chymotrypsin. The final concentration of chymotrypsin was set at 10 μg/mL, and the final concentration of DPMD was 5 mg/mL. In the corresponding control group, an equal volume of the buffer solution prepared by the kit was added. Subsequently, the enzyme-peptide mixture was added to the reaction system containing the substrate N-Benzoyl-L-Tyrosine Ethyl Ester (BTEE) at a ratio of 1:100 (where the proportion of the enzyme-peptide mixture solution was 1) for the detection of enzyme activity. The reaction was carried out at 25 ℃, and the product's absorbance at 256 nm was dynamically and real-time monitored using a microplate reader. The experimental result was represented by the enzyme reaction's degree of completion. All the tests were repeated three independent times.
(§3) NIH-3T3 cells were obtained from the National Collection of Authenticated Cell Cultures. HUVECs were obtained from Procell. All cells were maintained in DMEM media at 37°C with 5% CO₂. […] Cell viability was evaluated by the CCK-8 assay (Dojindo) at 1-, 3-, 5-, and 7-days post-treatment. […] The absorbance at 450 nm was recorded using a microplate reader […]

HUVEC = type: cell-based; conditions: 48 h
Experimental: as §1, §2, §3

Chymotrypsin = Chymotrypsin activity assay (BTEE); type: biochemical; conditions: Figure 2C
Experimental: as §1, §2, §3

[4] = intraperitoneal injection, 7 days post-treatment

Q: What does the source list for CC[C@@H](C)[C@@H](NC(=O)[C@@H](CCC(N)=O)NC(=O)[C@H](NC(=O)[C@@H](Cc1ccc(O)cc1)NC(=O)CNC(=O)[C@@H](CC(C)C)NC(=O)[C@H](NC(=O)[C@@H](CO)NC(=O)CNC(=O)[C@@H](C)NC(=O)[C@@H](CC(=O)O)NC(=O)[C@@H](C)NC(=O)[C@@H](CCCNC(=N)N)NC(=O)[C@@H](C)NC(=O)[C@@H](CC(=O)O)NC(=O)[C@@H](C)NC(=O)[C@@H](CCCNC(=N)N)NC(=O)[C@@H](C)NC(=O)[C@@H](CC(=O)O)NC(=O)[C@@H](C)NC(=O)[C@@H](CCCNC(=N)N)NC(=O)[C@@H](C)NC(=O)[C@@H](CC(=O)O)NC(=O)[C@@H](C)NC(=O)[C@H](N)CCCNC(=N)N)C(C)C)[C@H](C)CC)C(=O)N[C@H](CCCNC(=N)N)C(=O)O [DPMD, Ac‐(D‐RADA)4‐CONH2] (H-[dR][dA][dD][dA][dR][dA][dD][dA][dR][dA][dD][dA][dR][dA][dD][dA]G[dS][dV][dL]G[dY][dI][dQ][dI][dR]-OH; N-terminus and C-terminus assumed)?
A: blood cell counts (red and white cells, platelets) [1, 4]: remained within normal limits; liver function tests (ALT, AST, total bilirubin) and kidney function markers (creatinine, BUN, albumin) [1, 4]: no signs of organ damage or dysfunction; serum pro-inflammatory cytokine levels (IL-6, TNF-α, MCP-1, NF-κB) [1, 4]: indistinguishable from saline‐treated controls; histopathological examination of major organs ([1]; liver, kidney, lung, heart, spleen, H&E): no microscopic evidence of toxicity; anisotropy change with aprotinin-blocked trypsin [2]: only a minimal anisotropy change; fluorescence recovery after photobleaching of microaggregates in ascitic fluid ([3]; Figure S13B): minimal fluorescence recovery after photobleaching; proteolytic activity of trypsin and chymotrypsin in ascitic fluid ([3]; Figure S13D): markedly suppressed; cell viability (NIH-3T3 cells): > 90%; cell viability (HUVEC): > 90%; suppression of enzymatic activity of Chymotrypsin (Chymotrypsin): almost complete extent
